Activity calls are given as the source filed them.
Experiments:
Interleukin-8 [1] = target: T1, Interleukin-8 (Homo sapiens, UniProt P10145); experiment: Dose Response confirmation of uHTS small molecule hits for cystic fibrosis induced NFkb Inhibitors in a TNFa-induced IL8 counterscreen.; assay type: functional; details: read-out: IC50_Mean
Interleukin-8 [2] = target: T1, Interleukin-8; experiment: Dose Response confirmation of uHTS small molecule hits for cystic fibrosis induced NFkb Inhibitors in a PAF-induced IL8 counterscreen.; assay type: functional; details: read-out: IC50_Mean
[3] = target: T2, Mitochondrial peptide methionine sulfoxide reductase (Bos taurus, UniProt P54149); assay type: functional;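 as to IC50: absorbance read-out, biochemical high-throughput dose-response screen for MsrA inhibitors, confirmatory; recombinant bovine MsrA coupled to E. coli TrxB with NADPH and selenocystamine; potency is for inhibitors of MsrA activity on DMSO substrate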
[4] = luciferase reporter signal suppression in cells – H4 neuroglioma cells, luminescence, dose response (AID 1990); assay type: functional, cell-based
[5] = Luminescence Cell-Based Dose Response HTS to Identify Inhibitors of 5'UTR Stem-Loop Driven Prion Protein mRNA Translation in H4 Neuroglioblastoma Cells. [Related pubchem assays: 1827 (Project Summary), 1813 (Primary HTS)]; assay type: functional
[6] = alpha-synuclein stem-loop luciferase translation blockers – H4 neuroglioma cells, luminescence, confirmation (AID 1988); assay type: functional, cell-based
[7] = Trypanosoma cruzi growth suppression in host cells – NIH3T3 host cells, beta-gal luminescence, confirmation (AID 2044); assay type: functional, cell-based;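 also: intracellular parasites grown in NIH/3T3 mouse fibroblasts as host cells; luminescent beta-galactosidase reporter signal from transgenic T. cruzi replicating inside host cells; inhibitors lower the luminescence signal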
[8] = NIH3T3 cell viability loss – ATP luminescence, mouse fibroblasts, counter-screen, dose response (AID 2010); assay type: functional, cell-based;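 also: cells exposed to compound for about 90 hours before reading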
[9] = target: Heat shock protein HSP 90-alpha (Homo sapiens, UniProt P07900); assay type: functional, organism-based
[10] = NIH3T3 cell viability loss, ATP content – CellTiter-Glo luminescence, cherry-pick, set 2, cytotoxicity control for HSP40 inhibitor project, dose response (AID 624265); assay type: functional
[11] = target: Ras and Rab interactor 1/Tyrosine-protein kinase ABL1 (Homo sapiens, UniProt P00519+Q13671); assay type: functional;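 also: biochemical TR-FRET dose-response test measuring inhibition of binding between Rin1 and Abl proteins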
[12] = target: T2, Mitochondrial peptide methionine sulfoxide reductase; experiment: Absorbance-based biochemical high throughput dose response assay for activators of Methionine sulfoxide reductase A (MsrA).; assay type: functional
[13] = target: Photoreceptor-specific nuclear receptor (Homo sapiens, UniProt Q9Y5X4); assay type: functional, cell-based;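 also: CHO-S cells with Gal4-NCOR and VP16-NR2E3 two-hybrid luciferase reporter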
Paired box protein Pax-8 = Paired box protein Pax-8 (Homo sapiens, UniProt Q06710); experiment: PAX8 transcriptional activity inhibition in RMG-I – RMG-I cells, luciferase, cherry-pick, dose response (AID 687027); assay type: functional, cell-based;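 also: luciferase reporter driven by Pax8 target thyroperoxidase promoter measured by SteadyGlo luminescence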
[14] = target: T3, Histone-lysine N-methyltransferase NSD2 (Homo sapiens, UniProt O96028); assay type: biochemical
T3 sequence (O96028 whole entry): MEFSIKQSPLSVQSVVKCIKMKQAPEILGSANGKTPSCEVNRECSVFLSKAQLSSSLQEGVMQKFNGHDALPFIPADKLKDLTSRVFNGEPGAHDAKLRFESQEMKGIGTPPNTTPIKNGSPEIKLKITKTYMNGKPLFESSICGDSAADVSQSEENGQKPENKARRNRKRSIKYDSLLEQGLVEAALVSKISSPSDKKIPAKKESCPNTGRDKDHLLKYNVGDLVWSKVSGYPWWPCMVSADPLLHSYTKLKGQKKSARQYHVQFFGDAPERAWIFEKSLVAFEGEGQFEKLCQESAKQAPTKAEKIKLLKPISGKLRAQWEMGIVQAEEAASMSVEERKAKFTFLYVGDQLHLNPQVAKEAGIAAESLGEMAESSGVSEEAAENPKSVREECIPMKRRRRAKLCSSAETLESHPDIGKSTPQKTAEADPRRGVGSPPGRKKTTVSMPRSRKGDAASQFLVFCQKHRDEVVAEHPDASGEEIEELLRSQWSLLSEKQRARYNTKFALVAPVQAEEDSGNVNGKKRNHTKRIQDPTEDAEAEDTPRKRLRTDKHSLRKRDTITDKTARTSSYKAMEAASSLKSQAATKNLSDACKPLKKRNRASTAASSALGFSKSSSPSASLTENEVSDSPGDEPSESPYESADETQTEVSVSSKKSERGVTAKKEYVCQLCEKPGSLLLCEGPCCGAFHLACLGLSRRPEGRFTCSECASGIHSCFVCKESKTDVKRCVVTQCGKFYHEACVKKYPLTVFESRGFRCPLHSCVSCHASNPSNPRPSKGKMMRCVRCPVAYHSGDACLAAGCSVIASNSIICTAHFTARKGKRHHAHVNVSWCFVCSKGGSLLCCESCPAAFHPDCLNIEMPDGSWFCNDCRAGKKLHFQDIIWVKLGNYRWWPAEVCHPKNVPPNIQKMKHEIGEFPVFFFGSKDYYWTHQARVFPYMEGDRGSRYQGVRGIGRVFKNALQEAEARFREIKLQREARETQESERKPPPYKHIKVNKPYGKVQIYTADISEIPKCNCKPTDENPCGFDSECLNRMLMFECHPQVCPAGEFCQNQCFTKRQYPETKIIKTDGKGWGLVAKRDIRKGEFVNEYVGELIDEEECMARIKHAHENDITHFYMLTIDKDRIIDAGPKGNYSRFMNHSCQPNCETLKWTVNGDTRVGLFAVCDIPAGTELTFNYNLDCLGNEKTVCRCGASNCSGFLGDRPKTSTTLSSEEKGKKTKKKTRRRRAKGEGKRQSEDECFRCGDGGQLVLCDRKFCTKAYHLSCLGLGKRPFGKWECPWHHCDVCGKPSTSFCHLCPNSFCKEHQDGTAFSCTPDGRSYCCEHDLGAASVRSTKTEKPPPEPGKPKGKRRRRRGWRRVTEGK

[15] = target: T4, Tyrosyl-DNA phosphodiesterase 2 (Homo sapiens, UniProt O95551); experiment: potency against TDP2 phosphodiesterase activity – biochemical, epi absorbance, IC50, dose response (AID 743297)
T4 sequence (O95551 whole entry): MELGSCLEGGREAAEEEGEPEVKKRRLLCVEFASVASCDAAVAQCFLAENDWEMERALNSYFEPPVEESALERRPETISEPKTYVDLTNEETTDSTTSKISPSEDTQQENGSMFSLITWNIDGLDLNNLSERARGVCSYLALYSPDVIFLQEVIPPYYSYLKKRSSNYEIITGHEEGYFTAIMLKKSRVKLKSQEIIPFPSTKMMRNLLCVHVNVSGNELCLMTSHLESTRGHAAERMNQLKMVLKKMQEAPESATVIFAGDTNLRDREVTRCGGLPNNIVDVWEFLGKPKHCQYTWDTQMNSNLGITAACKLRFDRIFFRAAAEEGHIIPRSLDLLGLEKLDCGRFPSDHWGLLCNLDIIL

[16] = target: 1-phosphatidylinositol 4,5-bisphosphate phosphodiesterase gamma-1 (Homo sapiens, UniProt P19174); experiment: Counterscreen for inhibitors of phospholipase C isozymes (PLC-B3): Fluorescence-based biochemical high throughput dose response assay to identify inhibitors of phospholipase C isozymes (PLC-gamma1).
[17] = general cell-killing toxicity readout – plate reader, dry powder samples, cytotoxicity control for PAX8 inhibitor project, dose response (AID 743021); assay type: functional, cell-based
[18] = target: 1-phosphatidylinositol 4,5-bisphosphate phosphodiesterase beta-3 (Homo sapiens, UniProt Q01970); experiment: Fluorescence-based biochemical high throughput dose response assay to identify inhibitors of phospholipase C isozymes (PLC-B3).
[19] = target: RNA-editing ligase 1, mitochondrial (Trypanosoma brucei brucei, UniProt P86926); experiment: inhibition of trypanosome RNA editing ligase – biochemical, fluorescence, Trypanosoma brucei, dose response (AID 1117295); assay type: functional
[20] = target: Benomyl/methotrexate resistance protein (Candida albicans, UniProt P28873); experiment: Candida albicans Mdr1 pump inhibition curves – singleplex, Cherry Pick1 hits, dose response (AID 588608); assay type: functional
[21] = target: Multidrug resistance protein CDR1 (Candida albicans, UniProt P43071); experiment: inhibition of Nile Red efflux via Candida CDR1 – S. cerevisiae AD1-8u, singleplex, Cherry Pick1 hits, dose response (AID 588606); assay type: functional
[22] = target: Multidrug resistance protein CDR2 (Candida albicans (strain SC5314 / ATCC MYA-2876) (Yeast), UniProt P78595); experiment: inhibition of Nile Red efflux via Candida CDR2 – S. cerevisiae AD1-8u, singleplex, Cherry Pick1 hits, dose response (AID 588604); assay type: functional
[23] = target: T5, ATP-dependent translocase ABCB1 (Homo sapiens, UniProt P08183); experiment: inhibition of BCRP-mediated JC-1 efflux – Ig-MXP3 cells, flow cytometry, set 2, dose response (AID 504566); assay type: functional; details: read-out: EC50_MICROM_;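 also: flow cytometry median green fluorescence of retained JC-1 dye; potency of efflux pump inhibition measured as rising substrate retention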
[24] = target: T5, ATP-dependent translocase ABCB1; experiment: P-gp JC-1 efflux blockade concentration-response – Jurkat-DNR cells, flow cytometry, set 2, dose response (AID 504569); assay type: functional; details: read-out: EC50_MICROM_;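 also: potency of pump inhibitors that raise cellular JC-1 green fluorescence up to the nicardipine level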
[25] = target: T6, Apoptotic protease-activating factor 1 (Homo sapiens, UniProt O14727); experiment: SAR analysis of small molecule Activators of Apaf-1 in a Fluorescent assay.; assay type: functional; details: read-out: EC50_Mean;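 also: caspase-3 cleavage of fluorogenic Rh110 DEVD substrate downstream of apoptosome activation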
T6 sequence (O14727 whole entry): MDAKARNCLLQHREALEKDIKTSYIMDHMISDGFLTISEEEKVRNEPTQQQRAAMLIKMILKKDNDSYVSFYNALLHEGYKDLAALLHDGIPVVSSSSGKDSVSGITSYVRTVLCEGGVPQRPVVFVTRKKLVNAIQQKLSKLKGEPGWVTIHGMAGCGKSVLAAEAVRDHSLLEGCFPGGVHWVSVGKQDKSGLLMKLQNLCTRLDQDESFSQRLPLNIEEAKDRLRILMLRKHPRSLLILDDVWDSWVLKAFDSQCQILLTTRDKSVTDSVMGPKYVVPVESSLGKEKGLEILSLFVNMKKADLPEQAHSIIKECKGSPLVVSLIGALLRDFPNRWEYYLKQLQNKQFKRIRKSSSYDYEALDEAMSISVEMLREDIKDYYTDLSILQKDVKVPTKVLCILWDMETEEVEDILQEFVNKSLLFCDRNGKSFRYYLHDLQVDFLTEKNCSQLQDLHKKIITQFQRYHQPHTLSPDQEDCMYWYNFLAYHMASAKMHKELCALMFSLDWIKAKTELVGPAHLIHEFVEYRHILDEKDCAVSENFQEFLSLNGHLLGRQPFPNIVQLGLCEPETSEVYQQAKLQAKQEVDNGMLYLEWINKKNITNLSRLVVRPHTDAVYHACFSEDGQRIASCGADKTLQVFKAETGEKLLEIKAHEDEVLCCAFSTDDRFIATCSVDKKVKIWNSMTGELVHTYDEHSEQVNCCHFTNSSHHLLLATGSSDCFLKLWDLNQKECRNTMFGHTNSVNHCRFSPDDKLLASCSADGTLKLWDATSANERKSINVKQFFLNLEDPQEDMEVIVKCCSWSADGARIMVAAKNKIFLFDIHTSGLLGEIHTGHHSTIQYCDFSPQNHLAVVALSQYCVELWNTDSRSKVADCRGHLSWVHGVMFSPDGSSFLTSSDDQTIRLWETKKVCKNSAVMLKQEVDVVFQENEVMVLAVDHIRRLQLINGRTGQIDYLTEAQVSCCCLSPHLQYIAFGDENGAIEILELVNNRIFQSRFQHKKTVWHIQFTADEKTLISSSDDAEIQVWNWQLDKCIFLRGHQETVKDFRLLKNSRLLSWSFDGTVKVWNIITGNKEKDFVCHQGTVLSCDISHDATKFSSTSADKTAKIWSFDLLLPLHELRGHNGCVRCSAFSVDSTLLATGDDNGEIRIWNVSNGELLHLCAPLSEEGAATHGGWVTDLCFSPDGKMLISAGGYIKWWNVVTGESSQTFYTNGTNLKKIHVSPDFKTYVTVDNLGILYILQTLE

[26] = inhibition of ARNT PAS-B/TACC3 complex formation – biochemical, AlphaScreen, cherry-picked samples, confirmation (AID 651703); assay type: functional, Homo sapiens;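 also: His-tagged ARNT PAS-B domain paired with GST-TACC3 E629A dimer coactivator fragment; potency of inhibitors that break up the complex and lower AlphaScreen signal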

T2 sequence (P54149 whole entry): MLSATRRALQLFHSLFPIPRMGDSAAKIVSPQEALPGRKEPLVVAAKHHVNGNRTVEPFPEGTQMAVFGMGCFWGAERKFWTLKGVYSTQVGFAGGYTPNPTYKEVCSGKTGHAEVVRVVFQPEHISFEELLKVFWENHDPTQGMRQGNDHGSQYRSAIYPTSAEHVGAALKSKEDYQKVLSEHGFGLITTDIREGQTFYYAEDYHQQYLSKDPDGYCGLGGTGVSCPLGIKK
T1 sequence (P10145 whole entry): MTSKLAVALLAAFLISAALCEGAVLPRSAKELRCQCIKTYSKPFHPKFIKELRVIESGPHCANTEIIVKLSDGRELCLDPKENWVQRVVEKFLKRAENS
T5 sequence (P08183 whole entry): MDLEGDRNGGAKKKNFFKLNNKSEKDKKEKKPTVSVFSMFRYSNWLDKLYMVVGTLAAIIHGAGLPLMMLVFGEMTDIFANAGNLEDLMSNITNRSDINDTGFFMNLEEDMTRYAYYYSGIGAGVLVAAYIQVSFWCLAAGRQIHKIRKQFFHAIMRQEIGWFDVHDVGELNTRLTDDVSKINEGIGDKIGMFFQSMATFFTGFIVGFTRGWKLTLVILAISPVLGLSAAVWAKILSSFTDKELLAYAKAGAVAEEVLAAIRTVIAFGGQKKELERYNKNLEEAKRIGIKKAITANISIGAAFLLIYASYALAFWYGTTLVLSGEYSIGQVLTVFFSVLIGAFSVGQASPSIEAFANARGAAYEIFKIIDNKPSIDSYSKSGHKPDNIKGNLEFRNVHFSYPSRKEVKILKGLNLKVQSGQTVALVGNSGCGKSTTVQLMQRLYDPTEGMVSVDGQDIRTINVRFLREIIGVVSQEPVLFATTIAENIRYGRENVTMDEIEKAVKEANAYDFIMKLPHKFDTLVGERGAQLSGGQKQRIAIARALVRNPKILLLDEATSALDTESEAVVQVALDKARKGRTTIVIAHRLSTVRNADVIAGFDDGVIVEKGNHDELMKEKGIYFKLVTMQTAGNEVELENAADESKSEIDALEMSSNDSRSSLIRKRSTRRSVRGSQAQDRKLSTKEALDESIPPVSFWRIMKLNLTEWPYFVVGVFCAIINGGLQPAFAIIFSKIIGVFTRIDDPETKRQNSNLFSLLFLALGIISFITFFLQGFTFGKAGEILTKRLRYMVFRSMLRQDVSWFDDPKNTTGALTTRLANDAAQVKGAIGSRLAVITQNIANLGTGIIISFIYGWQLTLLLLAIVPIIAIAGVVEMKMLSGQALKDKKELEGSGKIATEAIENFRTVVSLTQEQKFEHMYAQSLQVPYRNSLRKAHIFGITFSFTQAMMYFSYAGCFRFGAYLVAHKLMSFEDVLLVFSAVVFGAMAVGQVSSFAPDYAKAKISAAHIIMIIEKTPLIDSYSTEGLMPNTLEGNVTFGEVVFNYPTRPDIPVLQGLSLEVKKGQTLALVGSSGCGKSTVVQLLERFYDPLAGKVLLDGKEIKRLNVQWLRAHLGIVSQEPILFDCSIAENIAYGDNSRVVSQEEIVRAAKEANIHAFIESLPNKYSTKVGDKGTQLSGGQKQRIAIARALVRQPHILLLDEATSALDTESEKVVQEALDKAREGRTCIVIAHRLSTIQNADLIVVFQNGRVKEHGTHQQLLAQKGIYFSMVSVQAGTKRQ
Sequence of Paired box protein Pax-8 (Q06710 whole entry): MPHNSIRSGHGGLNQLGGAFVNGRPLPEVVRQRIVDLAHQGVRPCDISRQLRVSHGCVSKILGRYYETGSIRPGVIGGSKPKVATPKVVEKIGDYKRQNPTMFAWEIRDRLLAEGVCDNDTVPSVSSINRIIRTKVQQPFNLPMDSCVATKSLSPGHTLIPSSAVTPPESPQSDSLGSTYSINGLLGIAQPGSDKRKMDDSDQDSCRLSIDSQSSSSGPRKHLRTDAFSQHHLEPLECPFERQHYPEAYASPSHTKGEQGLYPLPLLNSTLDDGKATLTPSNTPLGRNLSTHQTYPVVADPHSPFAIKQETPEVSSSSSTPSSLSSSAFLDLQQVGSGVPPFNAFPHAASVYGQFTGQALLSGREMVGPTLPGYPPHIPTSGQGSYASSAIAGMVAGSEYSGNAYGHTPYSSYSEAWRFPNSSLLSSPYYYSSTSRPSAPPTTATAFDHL
Sequence of 1-phosphatidylinositol 4,5-bisphosphate phosphodiesterase beta-3 (Q01970 whole entry): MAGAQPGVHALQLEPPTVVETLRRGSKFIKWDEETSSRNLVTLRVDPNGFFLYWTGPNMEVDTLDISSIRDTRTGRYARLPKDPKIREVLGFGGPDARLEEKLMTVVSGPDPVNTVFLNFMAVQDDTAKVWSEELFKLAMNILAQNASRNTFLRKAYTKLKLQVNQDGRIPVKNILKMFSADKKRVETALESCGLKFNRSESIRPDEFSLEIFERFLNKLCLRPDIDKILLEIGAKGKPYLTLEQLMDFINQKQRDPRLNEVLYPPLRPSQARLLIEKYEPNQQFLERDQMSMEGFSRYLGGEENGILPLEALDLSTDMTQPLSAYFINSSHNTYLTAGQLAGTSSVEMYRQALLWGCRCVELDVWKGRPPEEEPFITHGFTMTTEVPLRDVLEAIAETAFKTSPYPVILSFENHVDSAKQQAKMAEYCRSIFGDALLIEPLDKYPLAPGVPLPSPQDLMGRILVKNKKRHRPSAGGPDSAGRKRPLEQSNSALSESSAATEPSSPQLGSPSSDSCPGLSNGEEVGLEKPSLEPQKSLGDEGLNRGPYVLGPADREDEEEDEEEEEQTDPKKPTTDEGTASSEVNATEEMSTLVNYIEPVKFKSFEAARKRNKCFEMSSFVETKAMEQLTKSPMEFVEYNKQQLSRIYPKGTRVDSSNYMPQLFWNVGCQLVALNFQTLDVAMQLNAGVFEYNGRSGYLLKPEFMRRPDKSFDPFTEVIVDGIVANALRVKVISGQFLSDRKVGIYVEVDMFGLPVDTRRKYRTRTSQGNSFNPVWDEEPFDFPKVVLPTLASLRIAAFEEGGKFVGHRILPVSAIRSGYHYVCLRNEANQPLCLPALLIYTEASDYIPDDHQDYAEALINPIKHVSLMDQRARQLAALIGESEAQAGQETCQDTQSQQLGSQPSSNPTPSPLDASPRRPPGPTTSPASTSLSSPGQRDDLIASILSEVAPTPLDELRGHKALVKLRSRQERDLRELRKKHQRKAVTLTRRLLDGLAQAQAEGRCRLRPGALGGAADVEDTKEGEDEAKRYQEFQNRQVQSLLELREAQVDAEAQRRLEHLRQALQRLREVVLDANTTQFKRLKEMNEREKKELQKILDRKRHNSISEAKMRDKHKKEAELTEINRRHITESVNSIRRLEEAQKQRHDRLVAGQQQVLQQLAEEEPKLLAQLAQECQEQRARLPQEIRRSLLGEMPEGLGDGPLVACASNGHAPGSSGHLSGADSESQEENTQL
Sequence of RNA-editing ligase 1, mitochondrial (P86926 whole entry): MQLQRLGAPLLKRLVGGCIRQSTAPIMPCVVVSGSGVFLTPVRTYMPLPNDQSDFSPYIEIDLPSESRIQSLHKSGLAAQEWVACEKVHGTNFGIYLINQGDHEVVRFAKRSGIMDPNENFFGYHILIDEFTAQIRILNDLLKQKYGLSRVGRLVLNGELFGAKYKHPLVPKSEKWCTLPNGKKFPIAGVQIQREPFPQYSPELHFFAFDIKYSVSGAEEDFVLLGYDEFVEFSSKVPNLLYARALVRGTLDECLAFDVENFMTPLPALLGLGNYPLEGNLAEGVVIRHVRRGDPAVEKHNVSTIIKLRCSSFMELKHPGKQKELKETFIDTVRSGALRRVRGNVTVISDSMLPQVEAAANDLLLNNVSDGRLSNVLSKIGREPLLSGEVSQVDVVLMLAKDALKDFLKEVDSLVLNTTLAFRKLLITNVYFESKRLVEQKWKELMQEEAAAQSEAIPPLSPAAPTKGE
Sequence of Photoreceptor-specific nuclear receptor (Q9Y5X4 whole entry, the tested form may be a part): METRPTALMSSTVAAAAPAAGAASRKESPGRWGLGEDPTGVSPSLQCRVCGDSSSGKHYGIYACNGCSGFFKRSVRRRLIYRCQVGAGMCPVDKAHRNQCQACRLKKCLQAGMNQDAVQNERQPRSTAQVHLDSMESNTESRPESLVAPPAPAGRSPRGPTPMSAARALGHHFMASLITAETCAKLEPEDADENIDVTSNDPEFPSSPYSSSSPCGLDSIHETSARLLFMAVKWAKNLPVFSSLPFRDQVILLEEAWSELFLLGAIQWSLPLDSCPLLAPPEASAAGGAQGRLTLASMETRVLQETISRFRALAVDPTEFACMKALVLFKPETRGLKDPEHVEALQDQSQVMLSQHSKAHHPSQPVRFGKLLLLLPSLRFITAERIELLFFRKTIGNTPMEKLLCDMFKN
Sequence of Benomyl/methotrexate resistance protein (P28873 whole entry): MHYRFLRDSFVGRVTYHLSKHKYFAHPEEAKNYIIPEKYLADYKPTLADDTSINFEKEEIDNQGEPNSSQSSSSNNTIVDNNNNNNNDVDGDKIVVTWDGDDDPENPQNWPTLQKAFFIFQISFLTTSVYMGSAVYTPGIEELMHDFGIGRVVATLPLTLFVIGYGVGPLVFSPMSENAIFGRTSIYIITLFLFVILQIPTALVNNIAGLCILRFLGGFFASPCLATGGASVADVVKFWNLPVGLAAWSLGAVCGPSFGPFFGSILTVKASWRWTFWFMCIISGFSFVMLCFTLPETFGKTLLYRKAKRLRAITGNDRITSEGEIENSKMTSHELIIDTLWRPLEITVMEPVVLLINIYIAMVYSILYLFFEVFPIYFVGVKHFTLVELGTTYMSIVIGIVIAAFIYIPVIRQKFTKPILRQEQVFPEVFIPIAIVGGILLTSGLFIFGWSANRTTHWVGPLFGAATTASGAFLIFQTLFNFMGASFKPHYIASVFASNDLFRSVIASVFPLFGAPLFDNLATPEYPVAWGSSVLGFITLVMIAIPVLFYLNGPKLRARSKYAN

Q: What does the source list for `C=Cc1ccc(CC2(C)C(=O)Nc3ccc(-c4cccnc4)cc32)cc1` (configuration not stated)?
A: IC50 (Interleukin-8 [1]): 45.1 µM (inactive); IC50 (Interleukin-8 [2]): 25.5 µM (inactive)

Q: For `O=C(O)CC1SC(N/N=C/C=C/c2ccccc2)=NC1=O` (configuration not stated), which IC50 [3] is on record?
A: Its IC50 is 97.5 µM (inactive).

Q: Which results are given for `CCC(C)n1ncn(-c2ccc(N3CCN(c4ccc(OCC5COC(Cn6cncn6)(c6ccc(Cl)cc6Cl)O5)cc4)CC3)cc2)c1=O` (configuration not stated) [ITRACONAZOLE]?
A: EC50 [4]: > 120 µM (not active); EC50 [5]: 50 µM (active); EC50 [6]: > 120 µM (not active); EC50 [7]: 0.1 µM (active); EC50 [8]: > 60 µM (not active); AC50 [9]: < 0.195 µM (active); AbsAC35_uM [10]: 105.6 µM

Q: Which IC50 [11] does the source give for `O=C1C(=O)c2cccnc2-c2ncccc21` here?
A: The IC50 was 6.59 µM (active).

Q: And the EC50 [12]?
A: The EC50 was 3.64 µM (active).

Q: What about the IC50 [13] of the same compound?
A: Its IC50 is 12.1 µM (inactive).

Q: And the AC50 (Paired box protein Pax-8)?
A: The AC50 was 3.32 µM (active).

Q: What about the AC50 [14] of the same compound?
A: Its AC50 is 0.981 µM (active).

Q: What about the IC50 [15] of the same compound?
A: The IC50 was 12.5 µM (inactive).

Q: What about the IC50 [16] of the same compound?
A: The IC50 was 11.2 µM (inactive).

Q: And the AC50 [17]?
A: Its AC50 is 8.53 µM (active).

Q: What about the IC50 [18] of the same compound?
A: Its IC50 is > 123 µM (inactive).

Q: What about the IC50 [19] of the same compound?
A: Its IC50 is 3.51 µM (active).

Q: Which EC50 [20] does the source give for `COc1cc(OC)cc(-c2sc3ccc(OC)cc3c2-c2ccc(OCCN3CCCCC3)cc2)c1` here?
A: Its EC50 is 10.6 µM (active).

Q: And the EC50 [21]?
A: Its EC50 is 10.7 µM (active).

Q: And the EC50 [22]?
A: Its EC50 is 7.51 µM (active).

Q: With `Cc1ccc(-c2cc3nc(-c4ccccc4)cc(N4CCN(C(=O)c5ccco5)CC4)n3n2)cc1` as the compound, how does the EC50 [23] read?
A: The EC50 was 0.95 µM (active).

Q: What about the EC50 [24] of the same compound?
A: The EC50 was 2.41 µM (active).

Q: With `COc1ccc(C(=O)NC(CCc2ccccc2)CC(=O)O)cc1` (configuration not stated) as the compound, how does the EC50 [25] read?
A: Its EC50 is > 100 µM (inactive).

Q: With `CCOc1ccc(Nc2nc(N)nc(CN(C)C3CCCCC3)n2)cc1` as the compound, how does the AC50 [26] read?
A: The AC50 was 71.6 µM (active).

From ChEMBL document CHEMBL1201862, “PubChem BioAssay data set” (2004)
